In ChEMBL document CHEMBL2331470 (J Med Chem, 2013) one finds IC50 and inhibition data, which are given here for 13 molecules.

Activity calls are given as the source filed them. The rule behind the calls is not given here.

The IC50 is the midpoint of a concentration-inhibition curve.

Sequence of Histone deacetylase 9 (Q9UKV0 whole entry): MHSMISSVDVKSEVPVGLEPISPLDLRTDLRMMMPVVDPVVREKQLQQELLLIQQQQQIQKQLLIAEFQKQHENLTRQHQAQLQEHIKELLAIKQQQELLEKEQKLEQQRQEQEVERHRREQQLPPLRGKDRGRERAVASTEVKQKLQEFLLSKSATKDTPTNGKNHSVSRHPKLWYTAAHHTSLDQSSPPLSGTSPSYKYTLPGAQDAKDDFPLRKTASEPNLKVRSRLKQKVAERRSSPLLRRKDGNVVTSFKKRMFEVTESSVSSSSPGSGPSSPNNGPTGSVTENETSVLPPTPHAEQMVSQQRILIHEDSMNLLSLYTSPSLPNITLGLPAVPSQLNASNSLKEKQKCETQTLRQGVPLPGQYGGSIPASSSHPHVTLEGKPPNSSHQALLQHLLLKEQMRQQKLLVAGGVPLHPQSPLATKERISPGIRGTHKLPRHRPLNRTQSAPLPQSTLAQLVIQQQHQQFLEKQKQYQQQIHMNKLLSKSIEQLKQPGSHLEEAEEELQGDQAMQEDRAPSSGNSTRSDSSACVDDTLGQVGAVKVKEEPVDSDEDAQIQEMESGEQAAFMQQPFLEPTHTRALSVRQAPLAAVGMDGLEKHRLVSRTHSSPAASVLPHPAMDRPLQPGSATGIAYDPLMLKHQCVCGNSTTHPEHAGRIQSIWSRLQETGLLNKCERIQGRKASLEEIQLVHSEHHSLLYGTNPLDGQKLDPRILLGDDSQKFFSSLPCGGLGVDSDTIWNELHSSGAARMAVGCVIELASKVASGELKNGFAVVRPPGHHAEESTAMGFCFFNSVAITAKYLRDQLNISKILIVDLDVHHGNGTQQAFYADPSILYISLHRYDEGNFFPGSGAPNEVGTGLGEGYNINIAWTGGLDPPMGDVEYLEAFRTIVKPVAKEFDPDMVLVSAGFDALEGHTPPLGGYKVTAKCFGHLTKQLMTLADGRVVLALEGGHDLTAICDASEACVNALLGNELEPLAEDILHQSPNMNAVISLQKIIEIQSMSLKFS

One assay concerns the target Histone deacetylase 9 (Homo sapiens, UniProt Q9UKV0). Put plainly: Inhibition of HDAC9 (unknown origin) assessed as fluorescence intensity measured after 60 mins incubation at room temperature by trypsin-free microfluidic lab-on-a-chip assay.
In the case of `O=C(NO)C1=CCCC1`, the IC50 is over 33.3 µM.
Still for that read-out and setting: for `O=C(NO)c1ccccc1` [BENZOHYDROXAMATE] the value was over 33.3 µM.

The target in a further assay is Histone deacetylase 5 (Homo sapiens, UniProt Q9UQL6). Put plainly: Inhibition of HDAC5 (unknown origin) assessed as fluorescence intensity measured after 60 mins incubation at room temperature by trypsin-free microfluidic lab-on-a-chip assay.
Sequence of Histone deacetylase 5 (Q9UQL6 whole entry): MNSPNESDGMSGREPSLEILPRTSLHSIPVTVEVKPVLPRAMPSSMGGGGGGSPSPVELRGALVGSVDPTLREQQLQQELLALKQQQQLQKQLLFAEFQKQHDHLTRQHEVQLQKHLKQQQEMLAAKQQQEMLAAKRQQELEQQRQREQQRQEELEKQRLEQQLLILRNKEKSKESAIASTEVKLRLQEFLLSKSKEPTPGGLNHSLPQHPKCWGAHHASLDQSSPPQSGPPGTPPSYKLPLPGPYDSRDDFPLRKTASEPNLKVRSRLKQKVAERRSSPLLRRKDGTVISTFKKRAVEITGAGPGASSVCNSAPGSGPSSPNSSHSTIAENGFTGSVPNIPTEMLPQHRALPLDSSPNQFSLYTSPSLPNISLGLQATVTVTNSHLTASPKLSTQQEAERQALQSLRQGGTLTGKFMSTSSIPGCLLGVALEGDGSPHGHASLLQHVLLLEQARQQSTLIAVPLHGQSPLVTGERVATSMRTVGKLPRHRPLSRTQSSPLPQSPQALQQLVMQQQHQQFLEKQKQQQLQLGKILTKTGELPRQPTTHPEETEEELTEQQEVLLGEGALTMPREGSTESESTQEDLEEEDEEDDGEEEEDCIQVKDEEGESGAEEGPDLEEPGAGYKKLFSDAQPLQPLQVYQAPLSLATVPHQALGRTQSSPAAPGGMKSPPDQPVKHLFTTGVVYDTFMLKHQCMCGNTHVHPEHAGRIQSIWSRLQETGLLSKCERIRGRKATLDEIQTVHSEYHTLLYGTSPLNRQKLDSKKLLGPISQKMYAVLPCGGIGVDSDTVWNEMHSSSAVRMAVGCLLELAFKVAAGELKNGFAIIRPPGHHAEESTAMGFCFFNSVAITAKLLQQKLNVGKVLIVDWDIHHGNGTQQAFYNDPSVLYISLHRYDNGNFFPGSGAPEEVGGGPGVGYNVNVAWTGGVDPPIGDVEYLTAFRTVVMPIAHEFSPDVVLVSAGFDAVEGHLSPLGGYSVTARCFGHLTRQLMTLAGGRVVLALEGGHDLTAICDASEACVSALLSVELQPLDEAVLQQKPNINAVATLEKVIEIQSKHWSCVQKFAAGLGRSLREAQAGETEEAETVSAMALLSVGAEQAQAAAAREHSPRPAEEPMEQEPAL
Take `O=C(NO)C1=CCCC1`: the IC50 came to 18.3 µM.
Still for that read-out and setting: then `O=C(NO)c1ccccc1` [BENZOHYDROXAMATE], with over 33.3 µM.

For a further assay, the target named is T1, Histone deacetylase 3 (Homo sapiens, UniProt O15379). Put plainly: Inhibition of HDAC3 (unknown origin) assessed as fluorescence intensity measured after 60 mins incubation at room temperature by trypsin-free microfluidic lab-on-a-chip assay.
T1 sequence (O15379 whole entry): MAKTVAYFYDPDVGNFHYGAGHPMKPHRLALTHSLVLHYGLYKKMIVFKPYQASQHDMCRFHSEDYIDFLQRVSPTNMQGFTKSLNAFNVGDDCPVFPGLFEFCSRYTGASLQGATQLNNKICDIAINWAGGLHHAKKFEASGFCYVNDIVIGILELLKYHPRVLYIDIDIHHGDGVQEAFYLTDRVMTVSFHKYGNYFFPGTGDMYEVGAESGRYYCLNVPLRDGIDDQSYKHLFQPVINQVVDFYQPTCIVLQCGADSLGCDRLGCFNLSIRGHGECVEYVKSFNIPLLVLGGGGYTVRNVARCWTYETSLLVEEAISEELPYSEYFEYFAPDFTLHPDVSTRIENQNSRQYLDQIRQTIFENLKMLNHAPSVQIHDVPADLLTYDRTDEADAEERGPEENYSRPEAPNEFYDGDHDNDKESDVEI
In the case of `O=C(NO)C1=CCCC1`, the IC50 was 0.694 µM.
The same measure, in the same setting: then `O=C(NO)c1ccccc1` [BENZOHYDROXAMATE], with 7.83 µM.

The target in the next assay is Histone deacetylase 1 (Homo sapiens, UniProt Q13547). Put plainly: Inhibition of HDAC1 (unknown origin) assessed as fluorescence intensity measured after 60 mins incubation at room temperature by trypsin-free microfluidic lab-on-a-chip assay.
Sequence of Histone deacetylase 1 (Q13547 whole entry): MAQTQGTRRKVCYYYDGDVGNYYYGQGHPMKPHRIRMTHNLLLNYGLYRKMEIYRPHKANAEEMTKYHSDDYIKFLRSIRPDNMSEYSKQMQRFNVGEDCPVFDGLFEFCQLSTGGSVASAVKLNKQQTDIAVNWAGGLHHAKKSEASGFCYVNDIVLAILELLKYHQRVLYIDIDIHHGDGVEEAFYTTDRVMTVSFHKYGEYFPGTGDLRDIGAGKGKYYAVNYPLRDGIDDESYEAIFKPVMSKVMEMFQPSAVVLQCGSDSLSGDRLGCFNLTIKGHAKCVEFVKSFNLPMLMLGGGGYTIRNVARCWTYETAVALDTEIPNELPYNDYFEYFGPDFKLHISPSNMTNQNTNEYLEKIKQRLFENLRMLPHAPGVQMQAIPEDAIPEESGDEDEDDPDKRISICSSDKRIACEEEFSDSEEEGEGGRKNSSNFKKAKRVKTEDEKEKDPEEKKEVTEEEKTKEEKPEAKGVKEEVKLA
Turning to `O=C(NO)C1=CCCC1`, the IC50 amounted to 0.638 µM.
Still for that read-out and setting: for `O=C(NO)c1ccccc1` [BENZOHYDROXAMATE] the value was 4.73 µM.

A further assay concerns the target T1, Histone deacetylase 3. Put plainly: Inhibition of HDAC3 in human HeLa cells assessed as increase in acetylated H3 at 30 uM measured after 24 hrs by Western blotting analysis. Type of assay: cell-based.
Take `O=C(NO)C1=CCCC1`: the inhibition entry is “inactive”.
With `O=C(NO)c1ccccc1` [BENZOHYDROXAMATE], the inhibition result was “inactive”.
Same read-out and setting: then `O=C(NO)C1=CCCCC1`, with “inactive”; and `CNC(=O)c1ccc(C(=O)NO)cc1`, with “inactive”.

The next assay has as its target T2, Protein deacetylase HDAC6 (Homo sapiens) (UniProt Q9UBN7).
T2 sequence (whole entry): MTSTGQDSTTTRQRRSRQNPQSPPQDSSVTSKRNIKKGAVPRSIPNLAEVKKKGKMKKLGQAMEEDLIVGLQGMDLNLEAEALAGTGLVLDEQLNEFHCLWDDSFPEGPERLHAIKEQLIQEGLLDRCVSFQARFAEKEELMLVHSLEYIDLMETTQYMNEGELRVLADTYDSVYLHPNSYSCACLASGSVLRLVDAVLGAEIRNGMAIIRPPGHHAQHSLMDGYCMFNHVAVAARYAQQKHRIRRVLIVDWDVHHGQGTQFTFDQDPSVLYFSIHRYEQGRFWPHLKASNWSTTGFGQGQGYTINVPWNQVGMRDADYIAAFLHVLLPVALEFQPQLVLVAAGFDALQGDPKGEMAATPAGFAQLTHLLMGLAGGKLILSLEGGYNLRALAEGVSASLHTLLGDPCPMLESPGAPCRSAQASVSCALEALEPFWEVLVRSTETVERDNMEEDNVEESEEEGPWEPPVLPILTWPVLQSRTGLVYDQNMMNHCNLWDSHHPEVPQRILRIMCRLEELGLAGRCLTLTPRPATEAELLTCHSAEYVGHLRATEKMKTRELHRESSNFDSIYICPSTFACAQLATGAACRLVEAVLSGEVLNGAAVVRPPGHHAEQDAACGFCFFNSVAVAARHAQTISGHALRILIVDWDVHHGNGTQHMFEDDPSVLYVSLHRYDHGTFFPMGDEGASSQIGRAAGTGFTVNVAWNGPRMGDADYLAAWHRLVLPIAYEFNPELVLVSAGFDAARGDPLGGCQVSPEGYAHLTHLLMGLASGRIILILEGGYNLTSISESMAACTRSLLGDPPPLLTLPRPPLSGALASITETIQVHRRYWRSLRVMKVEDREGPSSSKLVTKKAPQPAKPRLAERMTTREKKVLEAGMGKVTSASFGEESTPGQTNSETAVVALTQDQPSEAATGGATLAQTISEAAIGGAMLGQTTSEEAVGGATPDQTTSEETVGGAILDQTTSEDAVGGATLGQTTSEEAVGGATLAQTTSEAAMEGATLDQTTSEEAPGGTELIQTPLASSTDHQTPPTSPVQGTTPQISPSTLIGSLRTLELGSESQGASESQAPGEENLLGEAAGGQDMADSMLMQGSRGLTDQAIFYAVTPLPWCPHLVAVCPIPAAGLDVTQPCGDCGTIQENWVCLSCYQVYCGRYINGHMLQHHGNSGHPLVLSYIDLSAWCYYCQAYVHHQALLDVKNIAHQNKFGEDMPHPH
Put plainly: Inhibition of HDAC6 in human HeLa cells assessed as increase in acetylated alpha-tubulin measured after 24 hrs by Western blotting analysis. Type of assay: cell-based.
For the molecule `O=C(NO)C1=CCCC1`, the inhibition result is “Dose-dependent effect”.
Regarding `O=C(NO)c1ccccc1` [BENZOHYDROXAMATE], the inhibition result is “Active”.
Still for that read-out and setting: for `O=C(NO)C1=CCCCC1` the value was “Active”.
Still for that read-out and setting: for `CNC(=O)c1ccc(C(=O)NO)cc1` the value was “Active”.

A further assay addresses T3, Histone deacetylase 8 (Homo sapiens, UniProt Q9BY41).
T3 sequence (Q9BY41 whole entry): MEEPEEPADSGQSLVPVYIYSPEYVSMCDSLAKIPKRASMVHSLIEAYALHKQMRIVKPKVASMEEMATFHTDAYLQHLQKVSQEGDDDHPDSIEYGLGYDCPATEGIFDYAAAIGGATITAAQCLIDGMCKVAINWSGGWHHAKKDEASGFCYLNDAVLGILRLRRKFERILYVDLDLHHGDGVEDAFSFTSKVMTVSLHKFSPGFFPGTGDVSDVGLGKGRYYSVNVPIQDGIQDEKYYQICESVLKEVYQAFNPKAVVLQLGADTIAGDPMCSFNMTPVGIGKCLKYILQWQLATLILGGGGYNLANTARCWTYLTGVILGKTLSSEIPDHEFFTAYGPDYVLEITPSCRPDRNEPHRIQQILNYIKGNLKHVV
Put plainly: Inhibition of HDAC8 (unknown origin) assessed as fluorescence intensity measured after 60 mins incubation at room temperature by trypsin-free microfluidic lab-on-a-chip assay.
`O=C(NO)C1=CCCC1`: the IC50 came out at 1.09 µM.
With `O=C(NO)C1CCCCC1`, the IC50 was 3.72 µM.
Still for that read-out and setting: then `O=C(/C=C/c1ccccc1)NO`, with 0.759 µM.
With `O=C(NO)c1ccc(C(=O)NCCc2ccccc2)cc1`, the IC50 amounted to 1.15 µM.
Same read-out and setting: for `O=C(CCc1ccccc1)NO` the value was 2.35 µM; for `O=C(NO)c1ccccc1` [BENZOHYDROXAMATE], 1.92 µM; for `O=C(Cc1ccccc1)NO` [PHENYLACETOHYDROXAMIC ACID], 11.6 µM.
Same read-out and setting: for `O=C(NO)c1ccc(C(=O)NCCc2ccncc2)cc1` the value was 1.33 µM; for `O=C(NO)C1=CCCCC1`, 0.431 µM; for `CNC(=O)c1ccc(C(=O)NO)cc1`, 1.95 µM.
The same measure, in the same setting: then `O=C(NO)c1ccc(C(=O)NCc2ccccc2)cc1`, with 1.03 µM; and `CN1CCN(CCNC(=O)c2ccc(C(=O)NO)cc2)CC1`, with 20.9 µM.
With `O=C(NO)c1ccc(C(=O)Nc2ccccc2)cc1`, the IC50 was found to be 0.689 µM.

The next assay addresses T4, Protein deacetylase HDAC6 (Homo sapiens, UniProt Q9UBN7).
T4 sequence (Q9UBN7 whole entry): T2 sequence (whole entry)
Put plainly: Inhibition of HDAC6 (unknown origin) assessed as fluorescence intensity measured after 60 mins incubation at room temperature by trypsin-free microfluidic lab-on-a-chip assay.
As for `O=C(NO)C1=CCCC1`, the IC50 worked out at 0.03 µM.
For `O=C(NO)C1CCCCC1`, the IC50 came to 0.376 µM.
On the same count and under the same terms, for `O=C(/C=C/c1ccccc1)NO` the value was 0.022 µM; for `O=C(CCc1ccccc1)NO`, 0.448 µM; for `O=C(NO)c1ccccc1` [BENZOHYDROXAMATE], 0.115 µM.
On to `O=C(NO)c1ccc(C(=O)NCCc2ccncc2)cc1`, for which the concentration for half-maximal inhibition (IC50) was 0.008 µM.
Still for that read-out and setting: then `O=C(NO)C1=CCCCC1`, with 0.012 µM; and `CNC(=O)c1ccc(C(=O)NO)cc1`, with 0.028 µM; and `O=C(NO)c1ccc(C(=O)NCc2ccccc2)cc1`, with 0.007 µM.
Still for that read-out and setting: then `CN1CCN(CCNC(=O)c2ccc(C(=O)NO)cc2)CC1`, with 1.36 µM.
`O=C(NO)c1ccc(C(=O)Nc2ccccc2)cc1`: the IC50 was determined as 0.037 µM.

The next assay deals with Histone deacetylase 4 (Homo sapiens, UniProt P56524). Put plainly: Inhibition of HDAC4 (unknown origin) assessed as fluorescence intensity measured after 60 mins incubation at room temperature by trypsin-free microfluidic lab-on-a-chip assay.
Sequence of Histone deacetylase 4 (P56524 whole entry): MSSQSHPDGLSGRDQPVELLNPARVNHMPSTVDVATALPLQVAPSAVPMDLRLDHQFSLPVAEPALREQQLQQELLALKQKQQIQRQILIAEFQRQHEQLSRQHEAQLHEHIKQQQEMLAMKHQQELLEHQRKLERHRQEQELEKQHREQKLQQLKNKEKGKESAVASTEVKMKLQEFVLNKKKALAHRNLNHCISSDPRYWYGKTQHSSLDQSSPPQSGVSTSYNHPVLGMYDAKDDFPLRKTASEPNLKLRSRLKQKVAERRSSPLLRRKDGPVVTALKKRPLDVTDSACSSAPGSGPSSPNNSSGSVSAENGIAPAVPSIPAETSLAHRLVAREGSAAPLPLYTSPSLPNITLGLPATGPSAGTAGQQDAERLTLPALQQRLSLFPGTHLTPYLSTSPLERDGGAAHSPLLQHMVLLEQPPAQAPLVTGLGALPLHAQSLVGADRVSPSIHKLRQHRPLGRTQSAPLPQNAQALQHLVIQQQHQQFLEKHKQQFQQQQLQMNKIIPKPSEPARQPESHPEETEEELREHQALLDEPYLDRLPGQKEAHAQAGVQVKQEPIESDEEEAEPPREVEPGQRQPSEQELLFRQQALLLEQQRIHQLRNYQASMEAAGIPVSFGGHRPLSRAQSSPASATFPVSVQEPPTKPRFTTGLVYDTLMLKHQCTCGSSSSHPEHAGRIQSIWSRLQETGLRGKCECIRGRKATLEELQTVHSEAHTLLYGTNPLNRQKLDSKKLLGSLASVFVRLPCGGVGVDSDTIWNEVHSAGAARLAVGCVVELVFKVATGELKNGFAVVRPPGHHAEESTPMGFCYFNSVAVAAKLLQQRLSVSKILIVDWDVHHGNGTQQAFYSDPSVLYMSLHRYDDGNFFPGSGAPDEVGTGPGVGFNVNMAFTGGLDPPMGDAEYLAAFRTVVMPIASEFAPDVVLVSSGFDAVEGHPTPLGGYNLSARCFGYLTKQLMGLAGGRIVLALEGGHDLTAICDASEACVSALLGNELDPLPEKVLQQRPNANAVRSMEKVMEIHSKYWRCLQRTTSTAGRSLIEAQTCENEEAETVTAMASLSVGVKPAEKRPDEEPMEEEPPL
For `O=C(NO)C1=CCCC1`, the IC50 is 21.8 µM.
Still for that read-out and setting: for `O=C(NO)C1CCCCC1` the value was over 33.3 µM; for `O=C(/C=C/c1ccccc1)NO`, 19.5 µM; for `O=C(NO)c1ccc(C(=O)NCCc2ccccc2)cc1`, over 33.3 µM.
On the same count and under the same terms, for `O=C(CCc1ccccc1)NO` the value was over 33.3 µM.
Still for that read-out and setting: then `O=C(NO)c1ccccc1` [BENZOHYDROXAMATE], with over 33.3 µM.
Regarding `O=C(Cc1ccccc1)NO` [PHENYLACETOHYDROXAMIC ACID], the IC50 is over 33.3 µM.
Still for that read-out and setting: then `O=C(NO)c1ccc(C(=O)NCCc2ccncc2)cc1`, with over 33.3 µM; and `O=C(NO)C1=CCCCC1`, with 9.13 µM.
On the same count and under the same terms, then `CNC(=O)c1ccc(C(=O)NO)cc1`, with over 33.3 µM; and `O=C(NO)c1ccc(C(=O)NCc2ccccc2)cc1`, with over 33.3 µM.
Still for that read-out and setting: for `CN1CCN(CCNC(=O)c2ccc(C(=O)NO)cc2)CC1` the value was over 33.3 µM.
`O=C(NO)c1ccc(C(=O)Nc2ccccc2)cc1`: the IC50 is over 33.3 µM.

The target in a further assay is Histone deacetylase 2 (Homo sapiens, UniProt Q92769). Put plainly: Inhibition of HDAC2 (unknown origin) assessed as fluorescence intensity measured after 60 mins incubation at room temperature by trypsin-free microfluidic lab-on-a-chip assay.
Sequence of Histone deacetylase 2 (Q92769 whole entry): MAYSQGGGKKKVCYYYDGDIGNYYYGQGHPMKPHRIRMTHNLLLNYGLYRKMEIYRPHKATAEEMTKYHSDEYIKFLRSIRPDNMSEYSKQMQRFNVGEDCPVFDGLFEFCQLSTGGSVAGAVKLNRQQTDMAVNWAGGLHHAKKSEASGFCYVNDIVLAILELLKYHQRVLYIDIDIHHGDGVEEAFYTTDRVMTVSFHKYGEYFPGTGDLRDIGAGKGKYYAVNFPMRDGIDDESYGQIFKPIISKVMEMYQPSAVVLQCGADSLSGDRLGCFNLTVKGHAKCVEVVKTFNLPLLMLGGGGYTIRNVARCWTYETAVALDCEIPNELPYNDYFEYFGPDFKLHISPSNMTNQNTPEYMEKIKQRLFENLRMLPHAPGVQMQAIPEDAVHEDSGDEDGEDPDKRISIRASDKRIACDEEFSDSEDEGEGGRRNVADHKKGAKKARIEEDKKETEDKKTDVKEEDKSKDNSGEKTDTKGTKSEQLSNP
With `O=C(NO)C1=CCCC1`, the IC50 was 1.79 µM.
On the same count and under the same terms, for `O=C(NO)C1CCCCC1` the value was over 33.3 µM.
The same measure, in the same setting: for `O=C(/C=C/c1ccccc1)NO` the value was 0.457 µM.
Same read-out and setting: for `O=C(CCc1ccccc1)NO` the value was 2.72 µM; for `O=C(NO)c1ccccc1` [BENZOHYDROXAMATE], 7.91 µM.
As to `O=C(Cc1ccccc1)NO` [PHENYLACETOHYDROXAMIC ACID], the IC50 was over 33.3 µM.
On the same count and under the same terms, then `O=C(NO)C1=CCCCC1`, with 1.05 µM; and `O=C(NO)c1ccc(C(=O)NCc2ccccc2)cc1`, with 0.381 µM.
